Laboratory results published in patent US20250177396A1, “POLO-LIKE KINASE 4 (PLK4) INHIBITORS, PHARMACEUTICAL COMPOSITIONS, METHODS OF PREPARATION AND USES THEREOF” (Repare Therapeutics Inc., priority 2022, published 2025).

Biological target: T1, PLK4 (Homo sapiens, UniProt O00444)
T1 construct: expressed in transfected cells; host or cells: HEK293 T cells (ATCC CRL-3216)
T1 sequence (O00444 1-970): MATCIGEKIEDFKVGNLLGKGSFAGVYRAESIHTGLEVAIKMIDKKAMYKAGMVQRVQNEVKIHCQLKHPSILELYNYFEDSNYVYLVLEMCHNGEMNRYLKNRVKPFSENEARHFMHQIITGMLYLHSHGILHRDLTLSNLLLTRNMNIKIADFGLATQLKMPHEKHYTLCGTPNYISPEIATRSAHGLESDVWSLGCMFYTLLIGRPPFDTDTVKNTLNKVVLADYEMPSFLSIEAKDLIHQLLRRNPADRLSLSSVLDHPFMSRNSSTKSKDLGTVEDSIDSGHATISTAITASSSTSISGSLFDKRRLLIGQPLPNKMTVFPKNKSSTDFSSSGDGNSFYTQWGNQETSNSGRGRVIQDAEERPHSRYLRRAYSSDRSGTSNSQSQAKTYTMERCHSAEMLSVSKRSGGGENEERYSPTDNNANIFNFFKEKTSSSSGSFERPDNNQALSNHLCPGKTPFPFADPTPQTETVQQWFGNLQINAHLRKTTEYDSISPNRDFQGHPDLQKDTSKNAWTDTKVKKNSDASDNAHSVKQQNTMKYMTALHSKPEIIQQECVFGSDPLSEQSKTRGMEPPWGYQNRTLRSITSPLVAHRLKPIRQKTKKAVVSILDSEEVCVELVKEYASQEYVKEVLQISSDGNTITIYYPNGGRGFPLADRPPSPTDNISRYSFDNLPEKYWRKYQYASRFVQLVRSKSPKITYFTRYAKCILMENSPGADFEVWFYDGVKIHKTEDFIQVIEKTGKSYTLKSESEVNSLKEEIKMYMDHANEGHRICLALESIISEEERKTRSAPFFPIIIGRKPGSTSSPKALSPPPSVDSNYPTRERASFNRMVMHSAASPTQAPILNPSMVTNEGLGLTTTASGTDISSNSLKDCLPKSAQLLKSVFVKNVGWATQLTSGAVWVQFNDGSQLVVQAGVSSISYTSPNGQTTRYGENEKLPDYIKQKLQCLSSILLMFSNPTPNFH
Experiment: PLK4 NanoBRET target engagement assay
Assay type: binding
Settings: HEK293 T cells transfected with PLK4 NanoLuc fusion vector; K-5 tracer; 2 hrs incubation
In short: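 HEK293T cells transiently expressing PLK4-NanoLuc, plated at 17000 cells/well with K-5 tracer and compound, incubated 2 h at 37 °C/5% CO2. After substrate/inhibitor mix, 610/450 nm emission ratio ×1000 gave mBRET; IC50 from 4-parameter fit.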

Row | Structure (SMILES) | IC50 [nM]
1 | COc1c(Nc2cc(C)[nH]n2)nc(Sc2ccc(S(C)(=O)=O)cc2F)c(C#N)c1-c1cnn(C)c1 [Compound 101] | 120
2 | Cc1cc(Nc2nc(N(C)c3c(F)cc(S(C)(=O)=O)cc3F)nc(-c3cn(C)c(C(C)(C)O)n3)c2C2CC2)n[nH]1 [Compound 323] | 10
3 | Cc1cc(Nc2nc(N(C)c3c(F)cc(S(C)(=O)=O)cc3F)nc(-c3cn(C)c(C4(O)CCC4)n3)c2C2CC2)n[nH]1 [Compound 322] | 12
4 | Cc1cc(Nc2nc(N(C)c3c(F)cc(S(C)(=O)=O)cc3F)nc(-c3cnn(C4CC4)c3)c2C2CC2)n[nH]1 [Compound 126] | 5
5 | COC1CCc2ncc(-c3nc(N(C)c4c(F)cc(S(C)(=O)=O)cc4F)nc(Nc4cc(C)[nH]n4)c3C3CC3)n2C1 (stereo not drawn) [Compound 255] | 2
6 | COCc1nc(-c2nc(N(C)c3c(F)cc(S(C)(=O)=O)cc3F)nc(Nc3cc(C4CC4)[nH]n3)c2C2CC2)cn1C [Compound 272] | 3
7 | COc1c(Nc2cc(C)[nH]n2)nc(N(C)c2c(F)cc(S(C)(=O)=O)cc2F)nc1-c1cnn(C)c1 [Compound 8, N^2-(2,6-difluoro-4-(methylsulfonyl)phenyl)-5-methoxy-N^2-methyl-N^4-(5-methyl-1H-pyrazol-3-yl)-6-(1-methyl-1H-pyrazol-4-yl)pyrimidine-2,4-diamine] | 6
8 | Cc1cc(Nc2nc(N(C)c3c(F)cc(S(C)(=O)=O)cc3F)nc(-c3ncnn3C)c2C2CC2)n[nH]1 [Compound 216] | 190
9 | COc1c(Nc2cc(C)[nH]n2)nc(N(C)c2ccc(S(C)(=O)=O)cc2F)nc1-c1ccn(C)n1 [Compound 6, N^2-(2-fluoro-4-(methylsulfonyl)phenyl)-5-methoxy-N^2-methyl-6-(1-methyl-1H-pyrazol-3-yl)-N^4-(5-methyl-1H-pyrazol-3-yl)pyrimidine-2,4-diamine] | 49
10 | Cc1ccn(-c2nc(N(C)c3ccc(S(C)(=O)=O)cc3F)nc(Nc3cc(C)[nH]n3)c2C2CC2)n1 [Compound 113] | 150
11 | COc1c(Nc2cc(C)[nH]n2)nc(N(C)c2ccc(S(C)(=O)=O)cc2F)c(F)c1-c1cnn(C)c1 [Compound 24, 3-fluoro-N^2-(2-fluoro-4-(methylsulfonyl)phenyl)-5-methoxy-N^2-methyl-N^6-(5-methyl-1H-pyrazol-3-yl)-4-(1-methyl-1H-pyrazol-4-yl)pyridine-2,6-diamine] | 1100
12 | COc1c(Nc2cc(C)[nH]n2)nc(Oc2ccc(Br)c(C#N)c2)nc1-c1cnn(C)c1 [Compound 36] | 7000
13 | Cc1cc(Nc2nc(N(C)c3c(F)cc(C(=O)N4CCC4)cc3F)nc(-c3cn(C)cn3)c2C2CC2)n[nH]1 [Compound 359] | 65
14 | COc1nn(C)cc1-c1nc(N(C)c2c(F)cc(S(C)(=O)=O)cc2F)nc(Nc2cc(C)[nH]n2)c1C1CC1 [Compound 147] | 5
15 | COc1c(Nc2cc(C)[nH]n2)nc(N(C)c2ccc(Br)cc2F)nc1-c1cnn(C)c1 [Compound 75] | 600
16 | Cc1cc(Nc2nc(N(C)c3cc(F)c(S(C)(=O)=O)cc3F)nc(-c3cc4n(n3)CCOC4)c2C2CC2)n[nH]1 [Compound 243] | 16
17 | COc1ccc(F)c(N(C)c2nc(Nc3cc(C)[nH]n3)c(OC)c(-c3cnn(C)c3)n2)c1 [Compound 74] | 1200
18 | Cc1cc(Nc2nc(N(C)c3cc(F)c(S(C)(=O)=O)cc3F)nc(-c3cnn(C)c3C(N)=O)c2C2CC2)n[nH]1 [Compound 248] | 33
19 | Cc1cc(Nc2nc(N(C)c3c(F)cc(S(C)(=O)=O)cc3F)nc(C(N)=O)c2C2CC2)n[nH]1 [Compound 179] | 260
20 | Cc1cc(Nc2nc(N(C)c3c(F)cc(S(C)(=O)=O)cc3F)nc(-c3cn(CCO)nc3C)c2C2CC2)n[nH]1 [Compound 202] | 6
21 | COc1c(Nc2cc(C)[nH]n2)nc(Nc2ccc(S(C)(=O)=O)cc2)nc1-c1cnn(C)c1 [Compound 37] | 550
22 | Cc1cc(Nc2nc(N(C)c3c(F)cc(S(C)(=O)=O)cc3F)nc(-c3cnn(CCS(C)(=O)=O)c3C)c2C2CC2)n[nH]1 [Compound 227] | 5
23 | COc1c(Nc2cc(C)[nH]n2)nc(N2CCc3cc(S(C)(=O)=O)ccc32)nc1-c1cnn(C)c1 [Compound 5, 5-methoxy-N-(5-methyl-1H-pyrazol-3-yl)-6-(1-methyl-1H-pyrazol-4-yl)-2-(5-(methylsulfonyl)indolin-1-yl)pyrimidin-4-amine] | 1100
24 | Cc1cc(Nc2nc(N(C)c3c(F)cc(S(C)(=O)=O)cc3F)nc(-c3cn(C)nc3C(F)F)c2C2CC2)n[nH]1 [Compound 149] | 6
25 | Cc1cc(Nc2nc(N(C)c3cc(F)c(S(C)(=O)=O)cc3F)nc(-c3cn(C4CC4)c(C)n3)c2C2CC2)n[nH]1 [Compound 242] | 5
26 | Cc1cc(Nc2nc(N(C)c3c(F)cc(S(C)(=O)=O)cc3F)nc(-c3cnn(C)c3N)c2C2CC2)n[nH]1 [Compound 181] | 29
27 | CN(c1nc(Nc2cc(C#N)[nH]n2)c(C2CC2)c(-c2cnn(C)c2)n1)c1c(F)cc(S(C)(=O)=O)cc1F [Compound 295] | 75

More lines, in order of falling IC50, values ahead:

Row | IC50 [nM] | Structure (SMILES)
28 | 4500 | COc1c(Nc2cc(C)[nH]n2)nc(N(C)c2cccc(S(C)(=O)=O)c2)nc1-c1cnn(C)c1 [Compound 78]
29 | 2800 | COc1c(Nc2cc(C)[nH]n2)nc(Oc2ccc(NS(C)(=O)=O)cc2)nc1-c1cnn(C)c1 [Compound 32]
30 | 1700 | COc1c(Nc2cc(C)[nH]n2)nc(-n2ccc3cc(S(C)(=O)=O)ccc32)nc1-c1cnn(C)c1 [Compound 89]
31 | 820 | COc1c(Nc2cc(C)[nH]n2)nc(N(C)c2cc3c(cc2F)OCO3)nc1-c1cnn(C)c1 [Compound 65]
32 | 89 | Cc1cc(Nc2nc(N(C)c3c(F)cc(S(C)(=O)=O)cc3F)nc(-c3cn(CCO)cn3)c2C2CC2)n[nH]1 [Compound 225]
33 | 68 | COc1c(Nc2cc(C)[nH]n2)nc(N(C)c2cc(Cl)c(S(C)(=O)=O)cc2F)nc1-c1cnn(C)c1 [Compound 116]
34 | 57 | Cc1cc(Nc2nc(N(C)c3c(F)cc(S(C)(=O)=O)cc3F)nc(-c3c(C)ncn3C)c2C2CC2)n[nH]1 [Compound 129]
35 | 54 | COc1c(Nc2cc(C)[nH]n2)nc(N(C)c2ccc(S(C)(=O)=O)c(F)c2F)nc1-c1cnn(C)c1 [Compound 49]
36 | 53 | COc1c(Nc2cc(C)[nH]n2)nc(N(C)c2ccc(S(C)(=O)=O)cc2F)nc1-c1cnn(C)c1 [Compound 2, N^2-(2-fluoro-4-(methylsulfonyl)phenyl)-5-methoxy-N^2-methyl-N^4-(5-methyl-1H-pyrazol-3-yl)-6-(1-methyl-1H-pyrazol-4-yl)pyrimidine-2,4-diamine]
37 | 49 | Cc1cc(Nc2nc(N(C)c3c(F)cc(S(C)(=O)=O)cc3F)nc(-c3cn4c(n3)C(O)CC4)c2C2CC2)n[nH]1 (stereo not drawn) [Compound 234]
38 | 33 | Cc1cc(Nc2nc(N(C)c3c(F)cc(S(C)(=O)=O)cc3F)nc(-c3cn(C4CC(O)C4)cn3)c2C2CC2)n[nH]1 (stereo not drawn) [Compound 257]
39 | 27 | Cc1cc(Nc2nc(N(C)c3c(F)cc(C4(C(N)=O)CC4)cc3F)nc(-c3cn(C)cn3)c2C2CC2)n[nH]1 [Compound 358]
40 | 19 | Cc1cc(Nc2nc(N(C)c3c(F)cc(S(C)(=O)=O)cc3F)nc(-c3cn(C)c(C(C)O)n3)c2C2CC2)n[nH]1 (stereo not drawn) [Compound 217]
41 | 14 | CN(c1nc(Nc2cc(C3CC3)[nH]n2)c(C2CC2)c(-c2cnn(CC(C)(C)O)c2)n1)c1c(F)cc(S(C)(=O)=O)cc1F [Compound 297]
42 | 13 | Cc1cc(Nc2nc(N(C)c3cc(F)c(S(C)(=O)=O)cc3F)nc(-c3cn(C)c(C)n3)c2C2CC2)n[nH]1 [Compound 187]
43 | 11 | CN(c1nc(Nc2cc(C3CC3)[nH]n2)c(C2CC2)c(-c2cn(C)cn2)n1)c1cc(F)c(S(C)(=O)=O)cc1F [Compound 298]
44 | 10 | Cc1cc(Nc2nc(N(C)c3c(F)cc(S(C)(=O)=O)cc3F)nc(-c3cn[nH]c3)c2C2CC2)n[nH]1 [Compound 40]
45 | 9 | Cc1cc(Nc2nc(N(C)c3c(F)cc(S(C)(=O)=O)cc3F)nc(-c3cnn(CCO)c3)c2C2CC2)n[nH]1 [Compound 141]
46 | 5 | Cc1cc(Nc2nc(N(C)c3c(F)cc(S(C)(=O)=O)cc3F)nc(-c3cc(C(=O)N(C)C)n(C)n3)c2C2CC2)n[nH]1 [Compound 319]
47 | 4 | COCc1cc(-c2nc(N(C)c3c(F)cc(S(C)(=O)=O)cc3F)nc(Nc3cc(C)[nH]n3)c2C2CC2)nn1C [Compound 166]
48 | 1 | CN(C)C(=O)c1c(-c2nc(N(C)c3c(F)cc(S(C)(=O)=O)cc3F)nc(Nc3cc(C4CC4)[nH]n3)c2C2CC2)cnn1C [Compound 280]
